Data taken from paper PMC12627862, “Therapeutic targeting of endothelial calcium signaling accelerates the resolution of lung injury” (Signal Transduction and Targeted Therapy, 2025).
Starred links: 1 amine or outer side, 2 acyl side, 3 side chain; linkers in the order of their positions; H or OH if unused. Positions of bridges follow the written chain, without caps; N, C: chain ends. Non-standard residues stand in square brackets, D forms with d. Residues, ends and D or L forms follow the SMILES beside them. ξ: configuration not given here. X2 = C[C@@](CCCCC=[*:3])(N[*:1])C(=O)[*:2]; Oic = O=C(O)[C@@H]1C[C@@H]2CCCC[C@@H]2N1; GABOB(3R) = O=C(C[C@@H](O)CN[*:1])[*:2]; d(tBuAla) = CC(C)(C)C[C@@H](N)C(=O)O; dVal(3-OH) = CC(C)(O)[C@@H](N)C(=O)O; tBuAla = CC(C)(C)C[C@H](N)C(=O)O; ξVal(3-OH) = CC(C)(O)C(N)C(=O)O; R5 = C=CCCC[C@@](C)(N)C(=O)O; X1 = O=C(CC(O)CN[*:1])[*:2]; 4Amb = NCc1ccc(C(=O)O)cc1

Key:
[1] = tested on: CD1 mice challenged with LPS; test: Endotoxemia model, sublethal LPS in oil-preloaded mice; format: in vivo, mouse; conditions: LPS 4 mg/kg i.p.
Excerpt: Considering the diverse etiological factors contributing to the pathogenesis of ARDS[29], we first assessed the therapeutic benefits of VT-109 in treating pulmonary vascular leakage in a murine model of endotoxemia-induced hyperinflammatory ARDS[30]. We induce a systemic inflammatory response by administering lipopolysaccharide (LPS), an endotoxin of the outer membrane of gram-negative bacteria, which elicits strong immune responses in animals, causing endothelial barrier breakdown and associated pulmonary edema, lung injury, morbidity, and mortality.
Using this model, we implemented two different i.v. treatment protocols with VT-109 (Fig. 3a, b). In cohort 1, mice received three daily doses of 1 µmol/kg bw VT-109 starting 24 hours after LPS challenge at the onset of lung injury. […] Cohort 3 mice received vehicle daily starting at 24 hours of LPS challenge. […] This inhibitory effect of VT-109 on neutrophil recruitment, a hallmark of lung inflammation and poor clinical prognosis, was consistent with our previous work[3]. Overall, our findings indicate that treating pulmonary vascular leakage reduces lung inflammation, in part, by restricting neutrophil transmigration through the endothelial barrier. […]
Evans’ blue-labeled albumin extravasation. […] The optical density of the supernatant was measured spectrophotometrically at 620 nm (Evans Blue) and 740 nm (hemoglobin correction), with the dye content normalized to the wet weight of the lungs. Corrections for hemoglobin were made as follows: Corrected absorbance (Evans blue) = Absorbance (620) - (1.426 × Absorbance (740) + 0.03). […]
Myeloperoxidase (MPO) measurements. […] MPO levels in the samples were determined using the o-dianisidine-H₂O₂ technique following enzyme extraction with hexadecyl-trimethylammonium bromide (HTAB). The absorbance change was measured at […] over a 3-minute period, and the data were expressed as ΔOD460/min/g lung tissue.

[2] = tested on: CD1 mice challenged with LD90 of LPS; test: Endotoxin-induced septic shock (LD90 LPS): survival and lung compliance; format: in vivo, mouse; conditions: for half maximal effective concentration (EC50) on the survival rate: LPS 30 mg/kg bw i.p. (LD90), i.v. once daily, three doses, from 20 hours after LPS, n = 10 mice per group
Protocol: To establish the effect of VT-109 on clinically translatable outcomes, we investigated its dose-dependent effect on survival rates in a murine model of septic shock (Fig. 5a, d). In experiments involving endotoxin-induced septic shock, mice were injected intraperitoneally with a lethal dose (LD) of LPS at 30 mg/kg bw, which caused 90% mortality. The treatment cohort of mice received i.v. VT-109 at doses ranging from 1 nmol/kg to 2 µmol/kg bw, which were administered once daily for a total of three doses. All the mice also received fluid resuscitation once a day for three days.
We next examined the effect of VT-109 on lung function at 250 nmol/kg bw, the dose that produced the greatest improvement in survival rates (Fig. 5a). Lung function was assessed by measuring lung compliance in mice challenged with a lethal dose of LPS (Fig. 5c). For the control, we used a non-effective dose of VT-109 at 1 nmol/kg bw, as 90% of the mice died before reaching 48 hours post-LPS treatment if left untreated. The 1 nmol/kg bw dose was not efficacious in our mortality studies but did delay death over a 48-hour period. Static lung compliance was measured at 10 cmH2O on the expiratory limb of a P‒V loop via the Salazar–Knowles equation[49].
In the survival studies, mice received i.p. corn oil at a dose of 0.35 mL two days before the challenge. CD1 mice were injected intraperitoneally with a lethal dose 90 (LD90) of LPS (Santa Cruz Biotechnology). In most experiments, this dose was 30 mg/kg bw; however, it was adjusted for each new batch of LPS in pilot studies. In the survival study, treatment with varying doses of VT-109 (1, 10, 100, 250, 500, and 2000 nmol/kg bw) was initiated 20 hours after the LPS challenge. In the lung compliance study, a non-efficacious dose (1 nmol/kg bw) of VT-109 was used as a control, while 250 nmol/kg bw of VT-109 was used for the experimental group. Both treatments were administered intravenously 20 hours after the LPS challenge. All mice received 1 mL of prewarmed saline daily for 3 days.

HLMVECs = test: Transendothelial electrical resistance (TEER) assay; format: cell-based, human; conditions: 1 µM, 1 hour pretreatment, 50 nM α-thrombin; to the same extent as EBIN

CC(C)(C)C[C@@H]1NC(=O)C[C@@H](O)CNC(=O)[C@@H]2C[C@@H]3CCCC[C@@H]3N2C(=O)[C@H](CC(C)(C)C)NC(=O)c2ccc(cc2)CNC(=O)C(C(C)(C)O)NC(=O)[C@@H](Cc2ccccc2)NC1=O (stereo partly drawn) [compound 109, (1^2S,1^3aS,1^7aS,3S,10S,13R,16S,20R)-13-benzyl-20-hydroxy-10-(2-hydroxypropan-2-yl)-3,16-dineopentyl-1^2,1^3,1^3a,1^4,1^5,1^6,1^7,1^7a-octahydro-1^1H-4,8,11,14,17,22-hexaaza-1(1,2)-indola-6(1,4)-benzenacyclotricosaphane-2,5,9,12,15,18,23-heptaone.] (cyclo([4Amb][tBuAla][Oic][GABOB(3R)][tBuAla][dF][ξVal(3-OH)]))
pulmonary edema (EBA extravasation) ([1]; cohort 1: three daily i.v. doses of 1 µmol/kg bw starting 24 hours after LPS): promptly blocked the development of pulmonary edema | pulmonary edema (EBA extravasation) ([1]; cohort 2: two daily i.v. doses of 1 µmol/kg bw starting 72 hours after LPS): accelerated the resolution of pulmonary edema | myeloperoxidase (MPO) in the lung tissue ([1]; regardless of the treatment initiation time): consistently lowered | static lung compliance ([2]; LD90 LPS, 250 nmol/kg bw i.v., at 10 cmH2O, n = 3‒4): 0.043 ± 0.001 ml/cm H₂O | half maximal effective concentration (EC50) on the survival rate [2]: 30 nmol/kg bw | mortality ([2]; efficacious doses, starting at 100 nmol/kg bw or higher): reduced mortality | EC50 on the survival rate, equivalent for humans ([2]; human equivalent of 30 nmol/kg bw): 2.2 µg/kg bw | mice that died within 48 hours post-LPS challenge ([2]; lowest dose of VT-109 (1 nmol/kg)): 90% | α-thrombin-induced changes in TEER (HLMVECs): attenuated

CC(C)(C)C[C@@H]1NC(=O)[C@](C)(NC(=O)c2ccc(CNC(=O)[C@H](N)C(C)(C)O)cc2)CCC/C=C\CCCC[C@@](C)(C(=O)N[C@H](CC(C)(C)C)C(=O)O)NC(=O)CC(O)CNC(=O)[C@@H]2C[C@@H]3CCCC[C@@H]3N2C1=O (stereo partly drawn) [compound 108, (2R)-2-((8S,18R,21S,23aS,27aS,28aS,Z)-18-(4-(((R)-2-amino-3-hydroxy-3-methylbutanamido)methyl)benzamido)-4-hydroxy-8,18-dimethyl-21-neopentyl-1,6,19,22-tetraoxo-1,2,3,4,5,6,7,8,9,10,11,12,15,16,17,18,19,20,21,22,23a,24,25,26,27,27a,28,28a-octacosahydro-[1,4,7,12]tetraazacyclotetracosino[4,5-a]indole-8-carboxamido)-4,4-dimethylpentanoic acid] (H-[dVal(3-OH)][4Amb][R5][tBuAla][Oic][X1][X2][d(tBuAla)]-OH; staple (Z) 3-7)
half maximal effective concentration (EC50) on the survival rate [2]: 308 nmol/kg bw | α-thrombin-induced changes in TEER (HLMVECs): attenuated
